Columns and labels:
A549 = test: Cell proliferation assay (Prolif.), IC50 scored relative to DMSO control; assay type: cell-based; conditions: A549 cells; for Rel. Prolif., A549: scored low/medium/high; for Prolif, A549: IC50 class relative to DMSO control
Method: Cell Proliferation Assay (Prolif.) Guo et al. (2018) Nat. Chem. 11:254-63. Specific cell lines are indicated in each assay and cultured in complete growth media. Activity is scored according to the IC50 values relative to DMSO control. “Low” indicates an IC50 greater than 600 nM, “Medium” indicates an IC50 between 300 nM and 600 nM “High” indicates an IC50 less than 300 nM. “Rel.Uptake” refers to uptake activity characterization relative to a single concentration assay. “Low” indicates a response greater than 0.6 times the activity relative to DMSO, “Medium” indicates a response between 0.6 and 0.3 times the activity relative to DMSO, “High” indicates a response less than 0.3 times the activity relative to DMSO.

[1] = Nucleoside uptake, single concentration assay (Rel.Uptake); cell line indicated in each table; assay type: cell-based; conditions: nucleoside uptake, single concentration assay, 293T cells, response relative to DMSO
Method: Nucleoside Uptake Assay (uptake). Nuceloside uptake assays were performed with using 3H-Thymidine as described in Guo et al. (2018) Nat. Chem. 11:254-63. Specific cell lines are indicated in each assay and cultured in complete growth media. Activity is scored according to the IC50 values relative to DMSO control. “Low” indicates an IC50 greater than 600 nM, “Medium” indicates an IC50 between 300 nM and 600 nM “High” indicates an IC50 less than 300 nM. “Rel.Uptake” refers to uptake activity characterization relative to a single concentration assay. “Low” indicates a response greater than 0.6 times the activity relative to DMSO, “Medium” indicates a response between 0.6 and 0.3 times the activity relative to DMSO, “High” indicates a response less than 0.3 times the activity relative to DMSO.

[2] = proliferation response relative to DMSO control

Compound: C=CC(=O)OCC(C)(C)C(=O)C(=O)N1CCCC[C@H]1C(=O)O[C@H](CCc1ccc(OC)c(OC)c1)c1cncc(NC(=O)CCC(=O)OC(C)(C)C)n1 [Compound 13]
- Rel. Prolif., A549 (A549; proliferation response relative to DMSO, single concentration): low

Compound: CCCC[C@H]1C(=O)N[C@@H](Cc2ccc3ccccc3c2)C(=O)N(C)[C@@H](COC(C)(C)C)C(=O)NCC(=O)N(C)CCC=CC(=O)OCC(C)(C)C(=O)C(=O)N2CCCC[C@H]2C(=O)O[C@H](CCc2cc(OC)c(OC)c(OC)c2)c2cccc(c2)OCC(=O)N1C [Compound 560]
- Prolif, A549 (A549): me- dium
- Rel. Prolif., A549 (A549; [2]): medium

Compound: CCCC[C@H]1C(=O)N[C@@H](Cc2ccc3ccccc3c2)C(=O)N(C)[C@@H](COC(C)(C)C)C(=O)NCC(=O)N(C)CCC=CC(=O)OCC(C)(C)C(=O)C(=O)N2CCCC[C@H]2C(=O)O[C@H](CCc2ccc(OC)c(OC)c2OC)c2cccc(c2)OCC(=O)N1C [Compound 561]
- Prolif, A549 (A549): me- dium
- Rel. Prolif., A549 (A549; [2]): medium

Compound: CCCC[C@H]1C(=O)N[C@@H](Cc2ccc3ccccc3c2)C(=O)N(C)[C@@H](COC(C)(C)C)C(=O)NCC(=O)N(C)CCC=CC(=O)OCC(C)(C)C(=O)C(=O)N2CCCC[C@H]2C(=O)O[C@H](CCc2cc(OC)c(OC)cc2OC)c2cccc(c2)OCC(=O)N1C [Compound 562]
- Prolif, A549 (A549): me- dium
- Rel. Prolif., A549 (A549; [2]): medium

Compound: CCCC[C@H]1C(=O)N[C@@H](Cc2ccc3ccccc3c2)C(=O)N(C)[C@@H](COC(C)(C)C)C(=O)NCC(=O)N(C)CCC=CC(=O)OCC(C)(C)C(=O)C(=O)N2CCCC[C@H]2C(=O)O[C@H](CCc2cc(OC)cc(OC)c2OC)c2cccc(c2)OCC(=O)N1C [Compound 563]
- Rel. Prolif., A549 (A549; [2]): low

Compound: CCCC[C@H]1C(=O)N[C@@H](Cc2ccc3ccccc3c2)C(=O)N(C)[C@@H](COC(C)(C)C)C(=O)NCC(=O)N(C)CCC=CC(=O)OCC(C)(C)C(=O)C(=O)N2CCCC[C@H]2C(=O)O[C@H](CCc2c(OC)ccc(OC)c2OC)c2cccc(c2)OCC(=O)N1C [Compound 564]
- Rel. Prolif., A549 (A549; [2]): low

Compound: CCCC[C@H]1C(=O)N[C@@H](Cc2ccc3ccccc3c2)C(=O)N(C)[C@@H](COC(C)(C)C)C(=O)NCC(=O)N(C)CCC=CC(=O)OCC(C)(C)C(=O)C(=O)N2CCCC[C@H]2C(=O)O[C@H](CCc2ccc(OC)c(OC)c2O)c2cccc(c2)OCC(=O)N1C [Compound 565]
- Prolif, A549 (A549): me- dium
- Rel. Prolif., A549 (A549; [2]): medium

Compound: CCCC[C@H]1C(=O)N[C@@H](Cc2ccc3ccccc3c2)C(=O)N(C)[C@@H](COC(C)(C)C)C(=O)NCC(=O)N(C)CCC=CC(=O)OCC(C)(C)C(=O)C(=O)N2CCCC[C@H]2C(=O)O[C@H](CCc2cc(O)c(OC)c(OC)c2)c2cccc(c2)OCC(=O)N1C [Compound 566]
- Prolif, A549 (A549): me- dium
- Rel. Prolif., A549 (A549; [2]): medium

Compound: CCCC[C@H]1C(=O)N[C@@H](Cc2ccc3ccccc3c2)C(=O)N(C)[C@@H](COC(C)(C)C)C(=O)NCC(=O)N(C)CCC=CC(=O)OCC(C)(C)C(=O)C(=O)N2CCCC[C@H]2C(=O)O[C@H](CCc2cc(OC)c(OC)cc2O)c2cccc(c2)OCC(=O)N1C [Compound 567]
- Prolif, A549 (A549): me- dium
- Rel. Prolif., A549 (A549; [2]): medium

Compound: CCCC[C@H]1C(=O)N[C@@H](Cc2ccc3ccccc3c2)C(=O)N(C)[C@@H](COC(C)(C)C)C(=O)NCC(=O)N(C)CCC=CC(=O)OCC(C)(C)C(=O)C(=O)N2CCCC[C@H]2C(=O)O[C@H](CCc2cc(F)c(OC)c(OC)c2)c2cccc(c2)OCC(=O)N1C [Compound 568]
- Prolif, A549 (A549): me- dium
- Rel. Prolif., A549 (A549; [2]): medium

Compound: CCCC[C@H]1C(=O)N[C@@H](Cc2ccc3ccccc3c2)C(=O)N(C)[C@@H](COC(C)(C)C)C(=O)NCC(=O)N(C)CCC=CC(=O)OCC(C)(C)C(=O)C(=O)N2CCCC[C@H]2C(=O)O[C@H](CCc2cc(OC)c(OC)cc2F)c2cccc(c2)OCC(=O)N1C [Compound 569]
- Prolif, A549 (A549): me- dium
- Rel. Prolif., A549 (A549; [2]): medium

Compound: CCCC[C@H]1C(=O)N[C@@H](Cc2ccc3ccccc3c2)C(=O)N(C)[C@@H](COC(C)(C)C)C(=O)NCC(=O)N(C)CCC=CC(=O)OCC(C)(C)C(=O)C(=O)N2CCCC[C@H]2C(=O)O[C@H](CCc2ccc(OC)c(OC)c2F)c2cccc(c2)OCC(=O)N1C [Compound 570]
- Prolif, A549 (A549): me- dium
- Rel. Prolif., A549 (A549; [2]): medium

Compound: CCCC[C@H]1C(=O)N[C@@H](Cc2ccc3ccccc3c2)C(=O)N(C)[C@@H](COC(C)(C)C)C(=O)NCC(=O)N(C)CCC=CC(=O)OCC(C)(C)C(=O)C(=O)N2CCN(C(=O)OCC3c4ccccc4-c4ccccc43)C[C@H]2C(=O)O[C@H](CCc2ccc(OC)c(OC)c2)c2cccc(c2)OCC(=O)N1C [Compound 571]
- Rel. Prolif., A549 (A549; [2]): low

Compound: COc1ccc(OC)c(OC)c1CC[C@H]1OC(=O)[C@@H]2CCCCN2C(=O)C(=O)C(C)(C)COC(=O)C=CCCN(C)C(=O)[C@@H](Cc2ccccc2)NC(=O)CN(C)C(=O)[C@@H](Cc2ccccc2)NC(=O)[C@H](Cc2ccc(O)cc2)N(C)C(=O)COc2cccc1c2 [Compound 1583]
- Rel. Uptake, 293T [1]: low

Compound: COc1ccc(CC[C@H]2OC(=O)[C@@H]3CCCCN3C(=O)C(=O)C(C)(C)COC(=O)C=CCCN(C)C(=O)[C@@H](Cc3ccccc3)NC(=O)CN(C)C(=O)[C@@H](Cc3ccccc3)NC(=O)[C@H](Cc3ccc(O)cc3)N(C)C(=O)COc3cccc2c3)c(O)c1OC [Compound 1584]
- Rel. Uptake, 293T [1]: low

Compound: COc1ccc(CC[C@H]2OC(=O)[C@@H]3CCCCN3C(=O)C(=O)C(C)(C)COC(=O)C=CCCN(C)C(=O)[C@H](CC(C)C)N(C)C(=O)[C@H]3CCCN3C(=O)[C@H](Cc3ccc(CNC(=O)c4ccccc4)cc3)NC(=O)[C@H](c3ccccc3)NC(=O)CCC(=O)Nc3cccc2c3)cc1OC [Compound 1585]
- Rel. Uptake, 293T [1]: High (“High” indicates a response less than 0.3 times the activity relative to DMSO)

Compound: COc1ccc(CC[C@H]2OC(=O)[C@@H]3CCCCN3C(=O)C(=O)C(C)(C)COC(=O)C=CCCN(C)C(=O)[C@H](CC(C)C)N(C)C(=O)[C@H]3CCCN3C(=O)[C@H](Cc3ccc(CNC(=O)Cc4ccccc4)cc3)NC(=O)[C@H](c3ccccc3)NC(=O)CCC(=O)Nc3cccc2c3)cc1OC [Compound 1586]
- Rel. Uptake, 293T [1]: Med

Compound: COc1ccc(CC[C@H]2OC(=O)[C@@H]3CCCCN3C(=O)C(=O)C(C)(C)COC(=O)C=CCCN(C)C(=O)[C@H](CC(C)C)N(C)C(=O)[C@H]3CCCN3C(=O)[C@H](Cc3ccc(CNC(=O)CN(C)C)cc3)NC(=O)[C@H](c3ccccc3)NC(=O)CCC(=O)Nc3cccc2c3)cc1OC [Compound 1587]
- Rel. Uptake, 293T [1]: Low (“Low” indicates a response greater than 0.6 times the activity relative to DMSO)

Compound: COc1ccc(CC[C@H]2OC(=O)[C@@H]3CCCCN3C(=O)C(=O)C(C)(C)COC(=O)C=CCCN(C)C(=O)[C@H](CC(C)C)N(C)C(=O)[C@H]3CCCN3C(=O)[C@H](Cc3cccc(NC(C)=O)c3)NC(=O)[C@H](c3ccccc3)NC(=O)CCC(=O)Nc3cccc2c3)cc1OC [Compound 1588]
- Rel. Uptake, 293T [1]: High (“High” indicates a response less than 0.3 times the activity relative to DMSO)

Compound: COc1ccc(CC[C@H]2OC(=O)[C@@H]3CCCCN3C(=O)C(=O)C(C)(C)COC(=O)C=CCCN(C)C(=O)[C@H](CC(C)C)N(C)C(=O)[C@H]3CCCN3C(=O)[C@H](Cc3ccc(NC(=O)Cc4cccnc4)cc3)NC(=O)[C@H](c3ccccc3)NC(=O)CCC(=O)Nc3cccc2c3)cc1OC [Compound 1589]
- Rel. Uptake, 293T [1]: Low (“Low” indicates a response greater than 0.6 times the activity relative to DMSO)

Compound: COc1ccc(CC[C@H]2OC(=O)[C@@H]3CCCCN3C(=O)C(=O)C(C)(C)COC(=O)C=CCCN(C)C(=O)[C@H](CC(C)C)N(C)C(=O)[C@H]3CCCN3C(=O)[C@H](Cc3ccc(CC(=O)NCc4ccccc4)cc3)NC(=O)[C@H](c3ccccc3)NC(=O)CCC(=O)Nc3cccc2c3)cc1OC [Compound 1590]
- Rel. Uptake, 293T [1]: High (“High” indicates a response less than 0.3 times the activity relative to DMSO)

Compound: CCCCCCNC(=O)Cc1ccc(C[C@@H]2NC(=O)[C@H](c3ccccc3)NC(=O)CCC(=O)Nc3cccc(c3)[C@@H](CCc3ccc(OC)c(OC)c3)OC(=O)[C@@H]3CCCCN3C(=O)C(=O)C(C)(C)COC(=O)C=CCCN(C)C(=O)[C@H](CC(C)C)N(C)C(=O)[C@H]3CCCN3C2=O)cc1 [Compound 1591]
- Rel. Uptake, 293T [1]: Med

Compound: C=C1NCC(=O)N(C)CC/C=C\C(=O)OCC(C)(C)C(=O)C(=O)N2CCCC[C@H]2C(=O)O[C@H](CCc2ccc(OC)c(OC)c2)c2cccc(c2)NC(=O)CCC(=O)N(C)[C@@H](CC(C)C)C(=O)N[C@H](Cc2ccccc2)C(=O)N(C)[C@H]1[C@@H](C)CC [Compound 1592]
- Rel. Uptake, 293T [1]: Low (“Low” indicates a response greater than 0.6 times the activity relative to DMSO)

Compound: COc1ccc(CC[C@H]2OC(=O)[C@@H]3CCCCN3C(=O)C(=O)C(C)(C)COC(=O)C=CCCN(C)C(=O)[C@@H]3CCCN3C(=O)[C@H](COC(C)(C)C)N(C)C(=O)[C@@H](c3ccccc3)NC(=O)[C@H](C)N(C)C(=O)COc3cc(F)cc2c3)cc1OC [Compound 1595]
- Rel. Uptake, 293T [1]: Low (“Low” indicates a response greater than 0.6 times the activity relative to DMSO)

Compound: COc1ccc(CC[C@H]2OC(=O)[C@@H]3CCCCN3C(=O)C(=O)C(C)(C)COC(=O)C=CCCN(C)C(=O)[C@@H]3CCCN3C(=O)[C@H](COC(C)(C)C)N(C)C(=O)[C@H](c3ccccc3)NC(=O)[C@H](C)N(C)C(=O)COc3cc(F)cc2c3)cc1OC [Compound 1596]
- Rel. Uptake, 293T [1]: Low (“Low” indicates a response greater than 0.6 times the activity relative to DMSO)
